From patent publication US20170137458A1, “OXYSTEROLS FOR USE IN THE TREATMENT AND PREVENTION OF DISEASES CAUSED BY VIRUSES” (priority 2014, published 2017)

Tests used:
[1] = test system: rotavirus; assay: Assay on adhesion of the rotavirus to the cell surface; format: cell-based; settings: MA104 cells, 5.6 μM for 20 hours, MOI 3
Procedure: For the assays on bonding of the rotavirus to the surface of MA104 cells, monolayers of confluent cells in plates with 24 wells were treated at 37° C. with 25- or 27-hydroxycholesterol at 1.9 μM and 5.6 μM for 20 hours. The cells were then washed and cooled on ice for 20 minutes. The infectivity of the virus was activated with 5 μg of porcine trypsin (Sigma)/ml for 30 minutes at 37° C. The activated virus, which had been cooled to 4° C., was left to adhere to the cells in ice for 1 hour at an MOI of 3. Lastly, the cells were washed with cold MEM; cold MEM was then added to the cells, which underwent two freezing-thawing cycles, in order to allow detachment of the viral particles bonded to the cell surface; the cell lysate was incubated at 37° C. for 30 minutes in the presence of […] of porcine trypsin/ml, subsequently clarified by means of centrifugation (1200 rpm, 10 minutes).
The titre of the virus population bound to the cells was determined by means of indirect immunocytochemistry performed on monolayers of MA104 cells infected with serial dilutions of the virus collected. The results are illustrated by FIG. 9; in the graph, the titre of the viral population bound to the surface of the treated cells is expressed in percentage terms with respect to the non-treated control and the error bars represent the standard deviation. […]

[2] = test system: rotavirus; assay: Rotavirus cell entry kinetics; format: cell-based; settings: MA104 cells
Procedure: To measure the entry speed of the rotavirus into the cells, confluent monolayers of MA104 cells (cultivated in plates with 96 wells) were treated with 25OHC, 27OHC or 7κC at 1.9 μM at 37° C.; after 20 hours, the cells were washed extensively with cold medium and left to cool on ice. […] The non-bound viruses were then eliminated by washing, medium was added at 37° C., and the plates were incubated at 37° C. in a humidified atmosphere. At fixed times (i.e. 0, 15, 30, 45, 60, 75 and 90 minutes after the virus-cell adhesion), the medium was extracted from the wells and the viral particles still present on the surface of the cells were eliminated by means of two rapid washing operations with EGTA 3 mM in PBS, followed by incubation in warm medium. After reaching the last time point (90 minutes from the virus-cell adhesion), the plates with 96 wells were placed in an incubator (37° C., 5% CO2), and the infection was left to proceed for a further 16 hours. The cells were then fixed and coloured as described above. The quantity of viral particles that entered the cells at each time point was compared with the quantity of virus that entered when no washing with EGTA was performed (100% entry). The ANOVA, followed by the Bonferroni test, was used to evaluate the statistical significance of the differences between the treated and non-treated samples. The significance was fixed at the level of 95%.
As a control experiment, the same treatment and infection protocol was performed on MA104 cells, cultivated in a plate with 6 wells. In this experiment, after reaching the last time point of the entry measurement (90 minutes), the cells were lysed, the proteins extracted were denatured by boiling for 5 minutes, then separated by electrophoresis on sodium dodecylsulfate gel with 12% polyacrylamide (SDS-12%PAGE) and transferred to a polyvinylidene difluoride (PVDF) membrane. The protein of the intermediate capsid VP6 was detected using the murine monoclonal antibody 2B4 (mab0036-P, CovalAb) at a dilution 1:750, followed by secondary antibody IgG-HRP (Santa Cruz Biotechnology Inc.). The actin was detected using the anti-actin murine monoclonal antibody MAB1501R (Millipore), followed by antibody IgG-HRP (Santa Cruz Biotechnology Inc.). The density of the bands was compared using the ImageJ software, and the intensity of the actin bands was used to normalize the values. The ANOVA, followed by the Bonferroni test, was used to evaluate the statistical significance of the differences between the treated and the non-treated samples. The significance was fixed at the level of 95%. The results are reported in FIG. 11 and are expressed as a percentage, comparing treated cells with cells incubated with culture medium.

[3] = test system: HPV PsV (protein L1); assay: Assay for adhesion of the papillomavirus to the cell surface: Western blot analysis; format: cell-based, human papillomavirus; settings: Hela cells treated 16 hours, PsV 4 hours at 4° C.
Excerpt: L1 was detected using the murine monoclonal antibody (Ab30908, Abcam, Cambridge, UK) at a dilution of 1:2000, followed by secondary antibody IgG-HRP (Santa Cruz Biotechnology Inc.). The actin was detected using an anti-actin murine monoclonal antibody (MAB1501R, Millipore), followed by secondary antibody IgG-HRP (Santa Cruz Biotechnology Inc.).

[4] = test system: human rotavirus HRV 408; assay: Infectivity assay for rotavirus, MA104 cells, strain HRV 408
Procedure: The strains of human rotavirus Wa (ATCC® VR-2018), WI61 (ATCC® VR-2551), HRV 408 (ATCC® VR-2273), HRV 248 (ATCC® VR-2274) and DS-1 (ATCC® VR-2550) were acquired from the American Tissue Culture Collection (ATCC); the viruses were activated with 5 μg/ml porcine pancreatic trypsin of type IX (Sigma, St. Louis, Mo.) for 30 minutes at 37° C. and propagated in MA104 cells using MEM containing 0.5 μg of trypsin per ml as described previously (27).
The antiviral effectiveness of the oxysterols of the invention was determined by means of infectivity inhibition assay. The assays were performed with confluent monolayers of MA104 cells seeded in plates with 96 wells, as described previously (28). […] The control samples were prepared by treating the cells with culture medium with the addition of equal volumes of ethanol. The cells were then washed with medium, and the rotavirus infection was performed at a multiplicity of infection (MOI) of 0.02. After the infection, the cells were washed with medium and incubated at 37° C. in an incubator humidified at 5% (vol/vol) CO2-95% (vol/vol) of air. After 16 hours, the infected cells were fixed with a cold acetone-methanol mixture (50:50), and the virus titres were determined by means of indirect immunocytochemistry. The inhibition of the virus infectivity was expressed as a percentage comparing the mean number of infective events in the treated and non-treated samples±the standard deviations. Where possible, the values of the oxysterol concentrations able to determine 50% or 90% of the antiviral effect (EC50 and EC90 respectively) were calculated by means of regression analysis using the dose-response curves generated by the experimental data, with the use of PRISM 5.00 (GraphPad Software, San Diego, Calif., USA).

[5] = test system: human rhinovirus 1A; assay: Infectivity assay with rhinovirus (plaque count, HeLa cells)
Procedure: The human rhinovirus 1A (ATCC® VR-1559) was acquired from ATCC. The virus was propagated in HeLa cells, at 33° C. with 5% of CO2. When the cytopathic effect (CPE) had fully developed, cells and supernatants were collected, frozen and thawed three times, clarified and divided into aliquots. The viruses were kept at −70° C. The rhinovirus titres were determined by means of the standard plaque assay. In short, the HeLa cells were seeded 2 days prior to the infection in plates with 96 wells, reaching 60%-70% confluence at the time of the infection. The viral suspension was serially diluted in DMEM supplemented with 2% fetal bovine serum and inoculated; the infected wells were incubated at 33° C. for 1 hour, allowing the viruses to adhere and enter the cells. The cells were subsequently washed with medium and covered with a 1:1 mixture of 1.6% SeaPlaque agarose (BioWhittaker Molecular Applications) and DMEM 2X [26.76 g DMEM (Gibco BRL), 20 ml of L-glutamine (Gibco BRL), 4.4 g of sodium bicarbonate (Sigma, St. Louis, Mo.), FBS 40 ml (Sigma, St. Louis, Mo.) and 1000 ml of water]. The plates were incubated at 33° C. for 3 days. At the end of the incubation, the plates were fixed with 7.5% formaldehyde (Fluka) and coloured with crystal violet (Sigma, St. Louis, Mo.). The number of plaques formed was then counted; the virus titres were expressed in terms of plaque-forming units per ml (PFU/ml).
The HeLa cells, kept in DMEM supplemented with 10% FBS and 1% Zell Shield, were seeded (at 8×10^4 cells/well) in plates with 24 wells. The medium was removed and the cells were infected with 200 microlitres/well containing approximately 30 PFU of a stock of human rhinovirus 1A. The infected cells were incubated at 33° C. for 1 h, allowing the virus to adhere and enter the cells. […] The plates were incubated at 33° C. for 5 days. After the incubation, the plates were fixed with formaldehyde at 7.5% (Fluka), coloured with crystal violet (Sigma, St. Louis, Mo.) and the number of plaques formed was counted. The oxysterol concentration values able to determine 50% or 90% of the antiviral effect (EC50 and EC90 respectively) were calculated by means of regression analysis using the dose-response curves generated by the experimental data, using PRISM 5.00 (GraphPad Software, San Diego, Calif., USA).

[6] = test system: human papillomavirus; assay: Target identification by siRNA sensitization (TISS), human papillomavirus, HeLa cells; settings: oxysterol at its EC50
Procedure: This mechanism of action vis-à-vis the rotavirus was therefore investigated, performing a target identification assay by means of sensitization with short interfering RNA (siRNA). The Caco2 cells (for the experiments with human rotavirus) or the HeLa cells (for the experiments with human papillomavirus) were seeded in a plate with 24 wells; during seeding, the cells were transfected with siRNA specific for OSBP and VAPA (at a concentration of 20 nM). […] After one day, the medium was removed and the cells inoculated with the respective viruses in the same time, temperature and MOI conditions described in the protocols of the infectivity or neutralization assays. The number of infected cells was evaluated as described in the preceding paragraphs.

[7] = pre-treatment assay, 20 hours prior to the infection

With `C[C@H](CCCC(C)(C)O)[C@H]1CC[C@H]2[C@@H]3CC=C4C[C@@H](O)CC[C@]4(C)[C@H]3CC[C@]12C` [25OHC, 25-hydroxycholesterol] the “titre of the viral population bound to the cell surface” value [1] was “reduce in a statistically significant manner (p<0.05) the ability of the virus to adhere to the cell surface”, the “entry of the rotavirus into the cells (infective events)” value ([2]; 1.9 μM for 20 hours, MOI 0.02) was “totally inhibit the ability of the rotavirus to penetrate into the host cells” and the “viral antigen VP6 within the cells (Western blot)” value ([2]; 90 minutes after virus-cell adhesion) was “significantly (p<0.05) lower quantity than the non-treated control”. The “adhesion of the PsV to the cell surface (L1 Western blot)” value [3] was “not able to inhibit adhesion of the PsV to the cell surface”, the EC50 [4] was 120 nM and the EC90 [4] was 420 nM. It also gave an EC50 ([5]; post-infection treatment assay) of 160 nM, an EC90 ([5]; post-infection treatment assay) of 410 nM and an EC50 [5, 7] of 290 nM. For the same molecule, the EC90 [5, 7] was 540 nM, the “antiviral activity in cells with OSBP silenced” value ([6]; OSBP siRNA 20 nM) was “higher” and the “antiviral activity in cells with VAP-A silenced” value ([6]; VAPA siRNA 20 nM) was “higher”.
